Biological target: LRRK2 G2019S (Homo sapiens, UniProt Q5S007, G2019S)
Assay: ADP-Glo Kinase Assay, LRRK2 G2019S
Format: biochemical
Details: 120 min kinase reaction at 25 °C, 10 concentrations, read-out: IC50 (LRRK2 G2019S_ADP-Glo Assay)
Experimental: Kinase inhibition assays were performed using the ADP-Glo^TM Kinase Assay (Promega) in 384-well format. A 2× ATP/substrate solution and a 2× kinase solution was prepared in kinase reaction buffer. Compounds were dispensed into the assay plates (100 nL per well) using an Echo 655 acoustic dispenser. Subsequently, 5 μL of the 2× kinase solutions were added to each well, followed by centrifugation at 1000 rpm for 1 min and incubation at 25 °C for 10 min. The kinase reactions were initiated by the addition of 5 μL of the 2× ATP/substrate solution.
Following the kinase reaction, 5 μL of ADP-Glo reagent was added to each well. Plates were centrifuged at 1000 rpm for 1 min and incubated at 25 °C for 60 min to terminate the reaction and deplete unconsumed ATP. […] Luminescence signals were recorded using a BMG plate reader.
The percentage inhibition (inhibition%) was calculated as: […]
IC50 values were determined by nonlinear regression of the inhibition% versus the logarithm of compound concentrations using a four-parameter sigmoidal dose–response model (variable slope) in GraphPad Prism 10.0. […]
Ten different concentrations were tested for each compound. […] Residual kinase activity was determined based on luminescence readouts, and the data were normalized to vehicle (100% activity) and complete inhibition controls (0% activity). […]

LRRK2 G2019S, sequence (Q5S007 whole entry G2019S): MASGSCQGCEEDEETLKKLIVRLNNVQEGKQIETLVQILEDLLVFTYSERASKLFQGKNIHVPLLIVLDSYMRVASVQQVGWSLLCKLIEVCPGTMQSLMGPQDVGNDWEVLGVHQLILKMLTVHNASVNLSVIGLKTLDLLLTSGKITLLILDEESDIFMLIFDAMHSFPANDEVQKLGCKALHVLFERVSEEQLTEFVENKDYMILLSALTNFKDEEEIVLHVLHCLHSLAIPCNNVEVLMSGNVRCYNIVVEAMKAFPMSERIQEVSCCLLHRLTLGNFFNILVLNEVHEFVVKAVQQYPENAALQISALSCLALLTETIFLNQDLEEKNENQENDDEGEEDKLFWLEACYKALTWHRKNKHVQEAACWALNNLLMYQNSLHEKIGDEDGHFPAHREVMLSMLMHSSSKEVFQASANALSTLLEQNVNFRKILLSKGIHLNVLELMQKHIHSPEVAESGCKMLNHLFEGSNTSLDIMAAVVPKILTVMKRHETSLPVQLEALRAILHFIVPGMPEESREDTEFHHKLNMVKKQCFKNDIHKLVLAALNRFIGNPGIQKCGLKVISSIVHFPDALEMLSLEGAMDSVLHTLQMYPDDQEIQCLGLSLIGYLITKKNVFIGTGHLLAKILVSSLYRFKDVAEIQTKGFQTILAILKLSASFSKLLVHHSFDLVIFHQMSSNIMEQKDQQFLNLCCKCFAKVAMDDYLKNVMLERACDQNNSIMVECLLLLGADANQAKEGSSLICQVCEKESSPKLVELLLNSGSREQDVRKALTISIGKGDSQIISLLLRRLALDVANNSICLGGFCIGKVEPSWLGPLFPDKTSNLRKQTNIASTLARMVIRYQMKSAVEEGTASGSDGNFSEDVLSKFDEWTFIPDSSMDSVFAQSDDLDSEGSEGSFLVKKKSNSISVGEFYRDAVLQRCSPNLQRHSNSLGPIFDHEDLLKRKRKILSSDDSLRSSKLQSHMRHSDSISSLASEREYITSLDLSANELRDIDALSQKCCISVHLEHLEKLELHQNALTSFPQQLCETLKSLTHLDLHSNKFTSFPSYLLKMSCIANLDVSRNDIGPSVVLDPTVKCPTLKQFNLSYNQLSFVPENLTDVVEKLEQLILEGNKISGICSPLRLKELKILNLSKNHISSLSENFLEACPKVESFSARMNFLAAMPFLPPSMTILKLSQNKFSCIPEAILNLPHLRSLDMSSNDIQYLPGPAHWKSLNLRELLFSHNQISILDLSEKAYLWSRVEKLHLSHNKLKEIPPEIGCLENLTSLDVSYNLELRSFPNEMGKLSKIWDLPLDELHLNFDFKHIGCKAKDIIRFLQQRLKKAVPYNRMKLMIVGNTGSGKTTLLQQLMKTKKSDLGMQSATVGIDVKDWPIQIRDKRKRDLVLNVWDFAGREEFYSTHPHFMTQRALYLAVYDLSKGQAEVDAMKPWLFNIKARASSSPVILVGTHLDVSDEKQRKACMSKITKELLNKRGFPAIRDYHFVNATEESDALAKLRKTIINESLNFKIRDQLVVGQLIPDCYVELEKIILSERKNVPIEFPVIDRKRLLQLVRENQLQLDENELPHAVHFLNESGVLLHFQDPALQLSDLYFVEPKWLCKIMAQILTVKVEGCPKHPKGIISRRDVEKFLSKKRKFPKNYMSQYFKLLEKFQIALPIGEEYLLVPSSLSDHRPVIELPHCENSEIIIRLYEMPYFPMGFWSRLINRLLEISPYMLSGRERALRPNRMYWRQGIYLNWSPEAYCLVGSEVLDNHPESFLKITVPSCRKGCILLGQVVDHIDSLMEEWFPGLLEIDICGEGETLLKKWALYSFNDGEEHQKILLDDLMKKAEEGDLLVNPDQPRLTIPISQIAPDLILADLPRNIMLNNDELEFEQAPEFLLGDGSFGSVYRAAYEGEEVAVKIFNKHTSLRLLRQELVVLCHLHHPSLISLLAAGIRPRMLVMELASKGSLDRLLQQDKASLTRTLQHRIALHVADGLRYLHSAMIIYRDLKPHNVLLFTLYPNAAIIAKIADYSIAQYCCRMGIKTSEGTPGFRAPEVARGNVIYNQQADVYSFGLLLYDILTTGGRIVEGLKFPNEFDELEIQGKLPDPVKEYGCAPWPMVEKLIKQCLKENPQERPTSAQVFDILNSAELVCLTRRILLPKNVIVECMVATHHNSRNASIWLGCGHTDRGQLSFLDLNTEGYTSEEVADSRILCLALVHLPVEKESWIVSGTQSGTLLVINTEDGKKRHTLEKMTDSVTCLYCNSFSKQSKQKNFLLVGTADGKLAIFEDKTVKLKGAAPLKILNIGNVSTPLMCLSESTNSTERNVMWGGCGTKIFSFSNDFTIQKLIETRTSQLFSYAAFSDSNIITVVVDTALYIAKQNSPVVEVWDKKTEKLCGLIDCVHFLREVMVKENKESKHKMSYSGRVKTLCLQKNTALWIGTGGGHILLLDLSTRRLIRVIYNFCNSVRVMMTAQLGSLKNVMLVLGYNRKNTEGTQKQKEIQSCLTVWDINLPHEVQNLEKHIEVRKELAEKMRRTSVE

Compound `COc1cc(C(=O)N2CCC(N3CCN(C)CC3)CC2)ccc1Nc1ncc2c(n1)N(C)c1ccccc1C(=O)N2C` [LRRK2-IN-1] has an IC50 of 5.25 nM.

Reference: paper PMC13335808 (Advanced Science, 2026)
